The values below come from patent publication US11530200B2, “Compounds” (Inflazome Limited, priority 2018, dated 2022).

The nature of series [1]: PK protocol, intravenous administration in rats. The format is in vivo. The conditions noted are these: rat, plasma, male Sprague Dawley rats, 1 mg/kg; for Vd: read-out: Vdss. Here is the method: Pharmacokinetic parameters were determined in male Sprague Dawley rats (Vital River Laboratory Animal Technology Co Ltd, Beijing, China, 7-9 weeks old). Animals were group housed during the study and maintained under a 12 h light/dark cycle. For intravenous administration, compounds were formulated as a solution in DMSO:PBS [10:90] in 2 mL/kg dosing volume and administered via tail vein. Serial blood samples (about 200 μL) were taken from each animal at each of 8 time-points post dose (0.083, 0.25, 0.5, 1, 2, 4, 8 and 24 h). Samples were held on ice for no longer than 30 minutes before centrifugation (5,696 rpm (3,000 g) for 15 minutes) for plasma generation. Plasma was frozen on dry ice prior to bioanalysis. PK parameters were generated from LC-MS/MS data using Phoenix WinNonlin 6.3 software.

The target of another series is NLRP3 (Homo sapiens (Human), UniProt Q96P20). The experiment in a line: THP-1 cells pyroptosis assay (LPS priming, nigericin, resazurin readout). It is filed as cell-based. The conditions noted are these: 1.0 μg/ml LPS, nigericin 5 μM, NLRP3 inhibitory activity. Here is the method: THP-1 cells (ATCC #TIB-202) were grown in RPMI containing L-glutamine (Gibco #11835) supplemented with 1 mM sodium pyruvate (Sigma #S8636) and penicillin (100 units/ml)/streptomycin (0.1 mg/ml) (Sigma #P4333) in 10% Fetal Bovine Serum (FBS) (Sigma #F0804). The cells were routinely passaged and grown to confluency (10^6 cells/ml). On the day of the experiment, THP-1 cells were harvested and resuspended into RPMI medium (without FBS). The cells were then counted and viability (>90%) checked by Trypan blue (Sigma #T8154). Appropriate dilutions were made to give a concentration of 625,000 cells/ml. To this diluted cell solution was added LPS (Sigma #L4524) to give a 1 μg/ml Final Assay Concentration (FAC). 40 μl of the final preparation was aliquoted into each well of a 96-well plate. The plate thus prepared was used for compound screening. The following method step-by-step assay was followed for compound screening. • 1. Seed THP-1 cells (25,000 cells/well) containing 1.0 μg/ml LPS in 40 μl of RPMI medium (without FBS) in 96-well, black walled, clear bottom cell culture plates coated with poly-D-lysine (VWR #734-0317) • 2. Add […] compound (8 points half-log dilution, with […] top dose) or vehicle (DMSO 0.1% FAC) to the appropriate wells • 3. Incubate for 3 hrs at 37° C., 5% CO2 • 4. Add 5 μl nigericin (Sigma #N7143) (FAC 5 μM) to all wells • 5. Incubate for 1 hr at 37° C., 5% CO2 • 6. At the end of the incubation period, spin plates at 300×g for 3 mins and remove supernatant • 7. Then add 50 μl of resazurin (Sigma #R7017) (FAC 100 μM resazurin in RPMI medium without FBS) and incubate plates for a further 1-2 hrs at 37° C. and 5% CO2 • 8. Plates were read in an Envision reader at Ex 560 nm and Em 590 nm • 9. IC50 data is fitted to a non-linear regression equation (log inhibitor vs response-variable slope 4-parameters) The results of the pyroptosis assay are summarised in Table 1 below as THP IC50.
(In general: The colour change of resazurin is a common sign of viable cells or microbes.)

As a reminder, the AUC is the area under the concentration-time curve, a measure of exposure. Usually clearance stands for the volume of plasma or blood freed of the substance per unit of time. The low end stands for inefficient removal, the high end for efficient removal. For orientation: half-life means the time needed for the level to fall by half in the phase considered. Low values mean fast loss, high ones slow loss. Usually IC50 stands for the midpoint of a concentration-inhibition curve. Lower therefore signals greater potency in that assay.

The structures appear in SMILES notation. Where a name gives a salt, the structure may show the parent alone. Some results are limits rather than exact numbers.

Chain of NLRP3 (Q96P20 whole entry): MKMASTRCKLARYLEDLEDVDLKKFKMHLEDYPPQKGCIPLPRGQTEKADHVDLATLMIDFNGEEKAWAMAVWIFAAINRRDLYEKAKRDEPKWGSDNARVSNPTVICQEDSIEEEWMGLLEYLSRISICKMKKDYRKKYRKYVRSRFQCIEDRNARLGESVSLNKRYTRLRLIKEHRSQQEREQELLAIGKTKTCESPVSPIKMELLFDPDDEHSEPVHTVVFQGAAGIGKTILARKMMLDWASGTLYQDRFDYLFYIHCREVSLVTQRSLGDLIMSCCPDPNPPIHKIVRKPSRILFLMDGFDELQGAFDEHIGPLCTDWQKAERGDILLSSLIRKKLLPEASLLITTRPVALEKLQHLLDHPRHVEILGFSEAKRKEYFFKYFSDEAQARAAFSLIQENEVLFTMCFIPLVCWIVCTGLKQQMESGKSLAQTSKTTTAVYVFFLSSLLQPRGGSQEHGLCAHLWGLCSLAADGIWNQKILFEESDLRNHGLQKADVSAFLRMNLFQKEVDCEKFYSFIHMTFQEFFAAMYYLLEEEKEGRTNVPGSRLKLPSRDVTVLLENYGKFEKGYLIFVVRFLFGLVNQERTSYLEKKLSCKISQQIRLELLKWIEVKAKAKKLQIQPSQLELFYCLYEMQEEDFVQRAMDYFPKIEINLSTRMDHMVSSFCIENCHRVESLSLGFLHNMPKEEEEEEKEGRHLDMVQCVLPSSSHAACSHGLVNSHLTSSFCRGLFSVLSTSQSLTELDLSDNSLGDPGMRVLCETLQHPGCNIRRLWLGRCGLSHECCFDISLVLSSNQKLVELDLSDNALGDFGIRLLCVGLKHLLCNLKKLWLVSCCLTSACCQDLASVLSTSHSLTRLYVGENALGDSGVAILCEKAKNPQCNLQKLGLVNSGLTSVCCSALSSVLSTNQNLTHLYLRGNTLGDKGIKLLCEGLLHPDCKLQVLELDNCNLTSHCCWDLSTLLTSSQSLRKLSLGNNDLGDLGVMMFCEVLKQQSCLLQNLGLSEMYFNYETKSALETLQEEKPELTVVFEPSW

For the compound `COc1cc(-c2cc(F)cc(C(C)C)c2CC(=O)NS(=O)(=O)c2ncn(C3CC3)n2)ccn1` [Example 21, N-((1-Cyclopropyl-1H-1,2,4-triazol-3-yl)sulfonyl)-2-(4-fluoro-2-isopropyl-6-(2-methoxypyridin-4-yl)phenyl)acetamide], in series [1], the AUC is 827 ng·h/mL, the clearance was 20.2 mL/min/kg, the half-life was 9.3 h and the Vd is 6.15 L/kg. This compound yielded an IC50 against NLRP3 of 1000 to 5000 nM.
For `CC(C)c1cc(F)cc(C(C)C)c1CC(=O)NS(=O)(=O)c1cnn(C2CC2)c1` [Example 24, N-((1-Cyclopropyl-1H-pyrazol-4-yl)sulfonyl)-2-(4-fluoro-2,6-diisopropylphenyl)acetamide], in series [1], the AUC was determined as 1270 ng·h/mL, the clearance is 13.1 mL/min/kg, the half-life was 2.6 h and the Vd stood at 1.94 L/kg. The compound also yielded an IC50 on NLRP3 of 1000 to 5000 nM.
The like results for `CC(C)c1cc(F)cc(-c2cccnc2)c1CC(=O)NS(=O)(=O)c1cnn(C2CC2)c1` [Example 11, N-((1-Cyclopropyl-1H-pyrazol-4-yl)sulfonyl)-2-(4-fluoro-2-isopropyl-6-(pyridin-3-yl)phenyl)acetamide] were, in that order, 1560 ng·h/mL, 10.7 mL/min/kg, 4.4 h, 0.95 L/kg and 1000 to 5000 nM.
Regarding `COc1cc(-c2cc(F)cc(C(C)C)c2CC(=O)NS(=O)(=O)c2cnn(C3CC3)c2)ccn1` [Example 18, N-((1-Cyclopropyl-1H-pyrazol-4-yl)sulfonyl)-2-(4-fluoro-2-isopropyl-6-(2-methoxypyridin-4-yl)phenyl)acetamide, potassium salt], in series [1], the area under the curve (AUC) is 1550 ng·h/mL, the clearance was 15.4 mL/min/kg, the half-life was 16.4 h and the Vd amounted to 6.52 L/kg. Further, the half-inhibitory concentration (IC50) on NLRP3 is not above 1000 nM.
